Data: PubChem BioAssay AID2060354 (Molecular Pharmacology Branch, DTP, NCI, 2025)

System: 519858-162-T-J1-PDC spheroid growth inhibition
Test: Anticancer human tumor 519858-162-T-J1-PDC patient-derived colon adenocarcinoma cell line growth inhibition [TAK]
Conditions: spheroids with HUVEC and MSC; for IC50: curve of first compound; for viability, T/C: stronger effect = lower value
Method in brief: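 Spheroids of 60% malignant cells, 25% HUVEC and 15% hMSC were exposed to targeted agents combined with TAK-243 or ipatasertib. Concentrations started at or near clinical Cmax (10 microM if unknown) and descended in half-log steps.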

[1] = second compound 0.3 µM, first compound 0.316 µM
[2] = second compound 0.3 µM, first compound 1 µM
[3] = second compound 0.3 µM, first compound 3.16 µM
[4] = second compound 0.3 µM, first compound 10 µM
[5] = second compound 0.949 µM, first compound 0.316 µM
[6] = second compound 0.949 µM, first compound 1 µM
[7] = second compound 0.949 µM, first compound 3.16 µM
[8] = second compound 0.949 µM, first compound 10 µM
[9] = second compound 3 µM, first compound 0.316 µM
[10] = second compound 3 µM, first compound 1 µM
[11] = second compound 3 µM, first compound 3.16 µM
[12] = second compound 3 µM, first compound 10 µM
[13] = second compound 9.49 µM, first compound 0.316 µM
[14] = second compound 9.49 µM, first compound 1 µM
[15] = second compound 9.49 µM, first compound 3.16 µM
[16] = second compound 9.49 µM, first compound 10 µM
[17] = second compound 30 µM, first compound 0.316 µM
[18] = second compound 30 µM, first compound 1 µM
[19] = second compound 30 µM, first compound 3.16 µM
[20] = second compound 30 µM, first compound 10 µM
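Further: each agent tested in combination with TAK-243 or ipatasertib; spheroids exposed to drugs for 7 days.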

Row | Compound | IC50 (second compound 0.3 µM) | IC50 (second compound 0.949 µM) | IC50 (second compound 3 µM) | IC50 (second compound 9.49 µM) | IC50 (second compound 30 µM) | viability, T/C [1] | viability, T/C [2] | viability, T/C [3] | viability, T/C [4] | viability, T/C [5] | viability, T/C [6] | viability, T/C [7] | viability, T/C [8] | viability, T/C [9] | viability, T/C [10] | viability, T/C [11] | viability, T/C [12] | viability, T/C [13] | viability, T/C [14] | viability, T/C [15] | also measured
1 | CC(C)(C)c1nc(-c2cccc(NS(=O)(=O)c3c(F)cccc3F)c2F)c(-c2ccnc(N)n2)s1 + CC(C)NCC(C(=O)N1CCN(c2ncnc3c2C(C)CC3O)CC1)c1ccc(Cl)cc1 | > 10 µM | > 10 µM | > 10 µM | > 10 µM | > 10 µM | 115% | 130% | 107% | 77.9% | 130% | 113% | 100% | 86.7% | 116% | 97.3% | 106% | 61.2% | 112% | 91.6% | 84.4% | viability, T/C (second compound 0.3 µM, first compound 0.0316 µM): 112%; viability, T/C (second compound 0.3 µM, first compound 0.1 µM): 128%; viability, T/C (second compound 0.949 µM, first compound 0.0316 µM): 109%; viability, T/C (second compound 0.949 µM, first compound 0.1 µM): 115%; viability, T/C (second compound 3 µM, first compound 0.0316 µM): 102%; viability, T/C (second compound 3 µM, first compound 0.1 µM): 102%; viability, T/C (second compound 9.49 µM, first compound 0.0316 µM): 104%; viability, T/C (second compound 9.49 µM, first compound 0.1 µM): 92.6%; viability, T/C [16]: 72.6%; viability, T/C (second compound 30 µM, first compound 0.0316 µM): 105%; viability, T/C (second compound 30 µM, first compound 0.1 µM): 86.9%; viability, T/C [17]: 98.1%; viability, T/C [18]: 82.2%; viability, T/C [19]: 83.2%; viability, T/C [20]: 75.4%
2 | CCCS(=O)(=O)Nc1ccc(F)c(C(=O)c2c[nH]c3ncc(-c4ccc(Cl)cc4)cc23)c1F + CC(C)NCC(C(=O)N1CCN(c2ncnc3c2C(C)CC3O)CC1)c1ccc(Cl)cc1 | > 100 µM | > 100 µM | > 100 µM | > 100 µM | 30.4 µM | 85.8% | 109% | 95.8% | 109% | 74.8% | 99.7% | 118% | 83.1% | 106% | 102% | 114% | 82.8% | 99.8% | 103% | 84.8% | viability, T/C (second compound 0.3 µM, first compound 31.6 µM): 90.6%; viability, T/C (second compound 0.3 µM, first compound 100 µM): 103%; viability, T/C (second compound 0.949 µM, first compound 31.6 µM): 51%; viability, T/C (second compound 0.949 µM, first compound 100 µM): 99.9%; viability, T/C (second compound 3 µM, first compound 31.6 µM): 99.8%; viability, T/C (second compound 3 µM, first compound 100 µM): 113%; viability, T/C [16]: 88.1%; viability, T/C (second compound 9.49 µM, first compound 31.6 µM): 77.9%; viability, T/C (second compound 9.49 µM, first compound 100 µM): 96%; viability, T/C [17]: 76.3%; viability, T/C [18]: 101%; viability, T/C [19]: 94.9%; viability, T/C [20]: 61%; viability, T/C (second compound 30 µM, first compound 31.6 µM): 23.6%; viability, T/C (second compound 30 µM, first compound 100 µM): 75.5%
